Laboratory results: patent publication US11447504B2, “Macrocyclic chlorine substituted indole derivatives” (Bayer Aktiengesellschaft, priority 2017, dated 2022)
pEC50, pIC50: −log10 of the molar value. Where “and” joins values, the source holds several entries; their conditions need not be identical. Equal values may be shown once. Where a name gives a salt, the structure may show the parent alone. Read-outs that look alike come from different tables or passages of the source.

How the values were obtained:
[1] = test system: SUDHL10; assay: Induction of cytotoxicity (Assay 6), SUDHL10
[2] = test system: AMO-1; assay: Antiproliferation assay 7, AMO-1; format: cell-based; details: AMO-1 cells, CellTiter-Glo, read-out: Antiproli AMO-1 IC50 median
Outline: (§1)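 Anti-proliferative effect is determined from CellTiter-Glo signal after a 72-hour incubation at 37° C, with a time-zero reference plate measured in parallel.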

[3] = test system: SUDHL5; assay: Induction of caspase-3/7 activity (Assay 4), SUDHL5; format: cell-based; details: SUDHL5 cells
Outline: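 DLBCL cells treated with compounds for 3 hours at 37° C. Caspase-3/7 activity measured by Caspase-Glo 3/7 luminescence, with medium-only background subtracted.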

[4] = test system: SUDHL5; assay: Induction of cytotoxicity (Assay 6), SUDHL5
[5] = test system: SUDHL10; assay: Antiproliferation assay 7, SUDHL10; format: cell-based; details: SUDHL10 cells, CellTiter-Glo, read-out: Antiproli SUDHL10 IC50 (median)
Method: Assessment of the Anti-Proliferative Effect of Compounds in Different Cell Lines
The impact of compounds on the proliferation of different cell lines was assessed using the CellTiter-Glo® Luminescent Cell Viability reagent from Promega (G7573).
In parallel, cells were plated in a reference (day 0) plate for time zero determination.
Rim wells were excluded. The cells were incubated for 72 hours in a humidified incubator at 37° C. The day 0 plate was measured by adding 30 μL/well of CTG solution (CellTiter-Glo® Luminescent Cell Viability reagent, Promega G7573) to time zero wells in the reference plate followed by a 10 minutes incubation and luminescence reading at 0.1 ms. using the PHERAstar FS microplate reader (BMG Labtech).
After 72 hours incubation, the treated plates were measured in the same way as the day 0 plate mentioned above.

[6] = test system: MV-4-11; assay: Antiproliferation assay 7, MV-4-11; format: cell-based; details: Homo sapiens, MV4-11, 72 h, MV-4-11 cells, CellTiter-Glo, read-out: Antiproli MV-4-11 IC50 median
Outline: as §1

[7] = test system: SUDHL5; assay: Antiproliferation assay 7, SUDHL5; format: cell-based; details: SUDHL5 cells, CellTiter-Glo, read-out: Antiproli SUDHL5 IC50 (median)
Outline: as §1

[8] = test system: SUDHL10; assay: Induction of caspase-3/7 activity (Assay 4), SUDHL10; format: cell-based; details: SUDHL10 cells
Outline: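 SUDHL10 DLBCL cells treated with compounds for 3 hours at 37 °C in a humidified incubator. Caspase-3/7 activity read with Caspase-Glo 3/7 luminescent reagent. Medium-only background subtracted from all values.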

[9] = target: BCL-2 (Homo sapiens (Human), UniProt P10415); assay: Protein-protein interaction assay BCL-2/Bad BH3 peptide (BCL-2 Assay, TR-FRET); format: binding; details: read-out: BCL-2 Assay IC50 (median)
Method: The dose-dependent inhibition by the compounds described in this invention of the interaction between BCL-2 and the BH3 domain of Bad (both human) was determined using a steady state binding competition assay with time-resolved fluorescence energy transfer (TR-FRET) readout.
(§2) For that, 100-fold concentrated DMSO solutions were prepared by serial dilutions (1:3.4) of a 2 mM stock solution in a clear, 384-well microtiter plate (Greiner Bio-One, Frickenhausen, Germany). From there, 50 nl were transferred in a dark test plate (Greiner Bio-One, Frickenhausen, Germany). […] This was followed by a 10-minute incubation step at 22° C. for pre-equilibration of the putative complex between His-BCL-2 and the compounds.
(§3) The mixture was incubated in the dark for one hour at 22° C. and then overnight at 4° C.
(§4) The resulting data (ratio) were normalized, taking 0% inhibition as the mean value of control measurements (usually 32 data points) where all reagents were included. In this case 50 nl DMSO were used instead of compounds. […] IC50 values were determined by regression analysis based on a 4 parameter equation (minimum, maximum, IC50, Hill; Y=Max+(Min−Max)/(1+(X/IC50)^Hill) using the Screener Software (Genedata).

[10] = target: BCL-XL (Homo sapiens (Human), UniProt Q07817); assay: Protein-protein interaction assay BCL-XL/Bad BH3 peptide (BCL-XL Assay, TR-FRET); format: binding; details: read-out: BCL-XL Assay IC50 (median)
Method: Assay 2 Protein-Protein Interaction Assay: BCL-XL/Bad BH3 Peptide (BCL-XL Assay)
The dose-dependent inhibition by the compounds described in this invention of the interaction between BCL-XL and the BH3 domain of Bad (both human) was determined using a steady state binding competition assay with time-resolved fluorescence energy transfer (TR-FRET) readout.
as §2, with “His-BCL-XL” for “His-BCL-2”
The mixture was incubated in the dark for one hour at 22° C. and then overnight at 4° C. The formation of BCL-XL/Bad complexes was determined by measuring the resonance energy transfer of the anti-His- Eu-cryptate antibody to the streptavidin-XL665 present in the reaction.
as §4

[11] = target: MCL-1 (Homo sapiens (Human), UniProt Q07820, K194A/K197A/R201A); assay: Protein-protein interaction assay MCL-1/Noxa BH3 peptide (MCL-1 Assay, TR-FRET); format: binding; details: read-out: MCL-1 Assay IC50 (median)
Method: The dose-dependent inhibition by the compounds described in this invention of the interaction between MCL-1 and the BH3 domain of Noxa (both human) was determined using a steady state binding competition assay with time-resolved fluorescence energy transfer (TR-FRET) readout. […] The MBP-MCL-1 was purchased from Beryllium (Bedford, Mass., USA). The expression and purification of this protein construct has been described elsewhere (DOI:10.1371/journal.pone.0125010). The Noxa BH3-derived peptide can be obtained from e.g. Biosyntan (Berlin, Germany).
as §2, with “MBP-MCL-1” for “His-BCL-2”
as §3, §4

[12] = test system: HMC-1-8; assay: Antiproliferation assay 7, HMC-1-8; format: cell-based; details: HMC-1-8 cells, CellTiter-Glo, read-out: Antiproli HMC-1-8 IC50 median
Outline: as §1

[13] = Homo sapiens, SU-DHL10, 5 h, read-out: Cytotox SUDHL10 IC50 (median), SUDHL10 cells, 5 hours, CellTiter-Glo
[14] = Homo sapiens, SU-DHL-5, 3 h, Caspase-Glo 3/7, read-out: Caspase SUDHL5 EC50 (median)
[15] = Homo sapiens, SU-DHL-5, 5 h, read-out: Cytotox SUDHL5 IC50 (median), SUDHL5 cells, 5 hours, CellTiter-Glo
[16] = Homo sapiens, SU-DHL10, 3 h, Caspase-Glo 3/7, read-out: Caspase SUDHL10 EC50 (median)
[17] = read-out: Cytotox SUDHL10 IC50 (median), SUDHL10 cells, 5 hours, CellTiter-Glo
[18] = 3 hours, Caspase-Glo 3/7, read-out: Caspase SUDHL5 EC50 (median)
[19] = read-out: Cytotox SUDHL5 IC50 (median), SUDHL5 cells, 5 hours, CellTiter-Glo
[20] = 3 hours, Caspase-Glo 3/7, read-out: Caspase SUDHL10 EC50 (median)

BCL-2, sequence (P10415 other isoform, or with tags, fused parts or gaps): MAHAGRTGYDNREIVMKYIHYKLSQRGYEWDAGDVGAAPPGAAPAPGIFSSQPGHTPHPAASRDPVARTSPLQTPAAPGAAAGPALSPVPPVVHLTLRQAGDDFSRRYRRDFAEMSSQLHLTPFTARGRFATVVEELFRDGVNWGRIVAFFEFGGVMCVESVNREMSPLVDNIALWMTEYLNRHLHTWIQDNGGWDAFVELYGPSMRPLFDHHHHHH
BCL-XL, sequence (Q07817 other isoform, or with tags, fused parts or gaps): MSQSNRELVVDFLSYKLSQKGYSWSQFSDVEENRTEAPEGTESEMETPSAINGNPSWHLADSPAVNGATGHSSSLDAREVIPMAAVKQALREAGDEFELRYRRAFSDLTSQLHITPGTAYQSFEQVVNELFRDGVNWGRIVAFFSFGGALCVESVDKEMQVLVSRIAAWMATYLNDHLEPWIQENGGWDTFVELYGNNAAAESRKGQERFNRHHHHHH
MCL-1, sequence (Q07820 whole entry K194A/K197A/R201A, looked up, the tested form may be a part): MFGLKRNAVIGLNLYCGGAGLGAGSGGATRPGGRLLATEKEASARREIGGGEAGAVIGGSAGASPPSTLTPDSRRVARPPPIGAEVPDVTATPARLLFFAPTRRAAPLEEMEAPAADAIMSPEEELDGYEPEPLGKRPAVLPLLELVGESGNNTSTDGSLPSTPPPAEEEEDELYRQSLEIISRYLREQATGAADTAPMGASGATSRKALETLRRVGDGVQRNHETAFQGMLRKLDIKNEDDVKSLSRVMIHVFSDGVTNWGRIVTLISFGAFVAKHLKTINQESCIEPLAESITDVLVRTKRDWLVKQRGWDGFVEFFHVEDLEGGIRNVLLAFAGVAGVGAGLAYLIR

Compound	pIC50 [9]	pIC50 [10]	pEC50 [3, 18]	pIC50 ([5]; 72 hours)	pIC50 ([7]; 72 hours)	pEC50 [8, 20]	pIC50 [1, 13]	pIC50 ([2]; Homo sapiens, AMO1, 72 h)	pEC50 [3, 14]	pIC50 [4, 15]	pIC50 ([5]; Homo sapiens, SU-DHL10, 72 h)	pIC50 [6]	pIC50 ([7]; Homo sapiens, SU-DHL-5, 72 h)	pEC50 [8, 16]	pIC50 [11]	pIC50 ([12]; 72 h)	pIC50 [1, 17]	pIC50 [4, 19]	pIC50 ([12]; 72 hours)	pIC50 ([2]; 72 hours)
CCc1c2c(nn1C)CN(C)CCCCn1c(C(=O)O)c(CCCOc3cccc4cc(F)ccc34)c3ccc(Cl)c-2c31 (racemic) [Example 5, (rac)-4-chloro-3-ethyl-7-{3-[(6-fluoronaphthalen-1-yl)oxy]propyl}-2,14-dimethyl-10,11,12,13,14,15-hexahydro-2H-pyrazolo[3′,4′:8,9][1,6]diazacycloundecino[10,11,1-hi]indole-8-carboxylic Acid]							6.28	6.21	6.57	6.54	6.55	6.15	6.48	6.21						
Cc1c2c(nn1C)COCCCCn1c(C(=O)O)c(CCCOc3cccc4cc(F)ccc34)c3ccc(Cl)c-2c31 (racemic) [Example 14, (rac)-4-chloro-7-{3-[(6-fluoronaphthalen-1-yl)oxy]propyl}-2,3-dimethyl-2,10,11,12,13,15-hexahydropyrazolo[4′,3′:9,10][1,6]oxazacycloundecino[8,7,6-hi]indole-8-carboxylic Acid]							6.21	6.13	6.60	6.41	6.38	5.91	6.29	6.39						
Cc1c2c(nn1C)CN(C)CCCCn1c(C(=O)O)c(CCCOc3cccc4cc(F)ccc34)c3ccc(Cl)c-2c31 (racemic) [Example 30, (rac)-4-chloro-7-{3-[(6-fluoronaphthalen-1-yl)oxy]propyl}-2,3,14-trimethyl-10,11,12,13,14,15-hexahydro-2H-pyrazolo[3′,4′:8,9][1,6]diazacycloundecino[10,11,1-hi]indole-8-carboxylic Acid]							6.47	6.38	6.74	6.68	6.82	6.53	6.77	6.43	9.04	5.81				
Cc1nn(C)c2c1-c1c(Cl)ccc3c(CCCOc4cccc5ccccc45)c(C(=O)O)n(c13)CCCCOC2 (single isomer, unassigned; enantiomer 2) [Example 4, 4-chloro-1,3-dimethyl-7-[3-(naphthalen-1-yloxy)propyl]-1,10,11,12,13,15-hexahydropyrazolo[4′,3′:9,10][1,6]oxazacycloundecino[8,7,6-hi]indole-8-carboxylic Acid (Enantiomer 2)]			< 4.55	4.92	4.89	< 4.48											< 4.48	4.59		

The next lines start with results.

pIC50 [9]	pIC50 [10]	pEC50 [3, 18]	pIC50 ([5]; 72 hours)	pIC50 ([7]; 72 hours)	pEC50 [8, 20]	Compound	pIC50 [1, 13]	pIC50 ([2]; Homo sapiens, AMO1, 72 h)	pEC50 [3, 14]	pIC50 [4, 15]	pIC50 ([5]; Homo sapiens, SU-DHL10, 72 h)	pIC50 [6]	pIC50 ([7]; Homo sapiens, SU-DHL-5, 72 h)	pEC50 [8, 16]	pIC50 [11]	pIC50 ([12]; 72 h)	pIC50 [1, 17]	pIC50 [4, 19]	pIC50 ([12]; 72 hours)	pIC50 ([2]; 72 hours)
< 4.70 and 4.73 and 4.69	< 4.70					CCc1c2c(nn1C)COC/C=C\Cn1c(C(=O)O)c(CCCOc3cccc4ccccc34)c3ccc(Cl)c-2c31 (racemic) [Example 18, (rac)-(11 Z)-4-chloro-3-ethyl-2-methyl-7-[3-(naphthalen-1-yloxy)propyl]-2,10,13,15-tetrahydropyrazolo[4′,3′:9,10][1,6]oxazacycloundecino[8,7,6-hi]indole-8-carboxylic Acid]	5.89		5.96	5.92		5.33	5.85	5.89	8.89					
< 4.70	< 4.70	5.55		5.42	5.27	CCc1c2c(nn1C)N(C)CCCCCn1c(C(=O)O)c(CCCOc3cccc4cc(F)ccc34)c3ccc(Cl)c-2c31 (single isomer, unassigned; enantiomer 2) [Example 79, 4-chloro-3-ethyl-7-{3-[(6-fluoronaphthalen-1-yl)oxy]propyl}-2,15-dimethyl-10,11,12,13,14,15-hexahydro-2H-pyrazolo[4′,3′:4,5][1,6]diazacycloundecino[3,2,1-hi]indole-8-carboxylic acid N-ethylethanamine Salt—Enantiomer 2]											5.29	5.66	4.85	5.13
< 4.70	< 4.70	5.49		5.34	5.21	Cc1c2c(nn1C)N(C)CCCCCn1c(C(=O)O)c(CCCOc3cccc4cc(F)ccc34)c3ccc(Cl)c-2c31 [Example 76, (−)-4-chloro-7-{3-[(6-fluoronaphthalen-1-yl)oxy]propyl}-2,3,15-trimethyl-10,11,12,13,14,15-hexahydro-2H-pyrazolo[4′,3′:4,5][1,6]diazacycloundecino[3,2,1-hi]indole-8-carboxylic acid-N-ethylethanamine salt]											5.15	5.52	4.89	5.07
